Data reported in patent US9346839B2.
Read-outs that look alike come from different tables or passages of the source.

Key:
Cells = assay: MTT reduction assay (cell survival and toxicity); type: cell-based; conditions: 1, 10, 50, 100 μM for 48 to 66 hours, compared to vehicle
Description: Cell Survival and Toxicity Assay. The MTT (3-(4,5-dimethylthiazol-2-yl)-2,5-diphenyltetrazolium bromide) assay, which is widely used to measure cell proliferation and to screen for anticancer drugs, was used for assessing cell viability. Cells were treated with a range of ABAD compounds at 1, 10, 50, and 100 μM for 48 hours and then subjected to MTT reduction assay following the manufacture's instruction.
Effect of ABAD Inhibitor on Cell Survival and Toxicity. The effect of ABAD inhibitors on cell viability and toxicity was assessed using MTT reduction assay and trypan blue exclusion, which are widely used to assess cell survival and toxicity and to screen for drugs toxicity. Cells were treated with a range of concentrations of ABAD compound (4 and 8) at 1, 10, 50, 100 μM for 48 to 66 hours.

[1] = Pharmacokinetic study, plasma and brain levels by LC-MS/MS; type: in vivo; conditions: both sexes, C57BL6, mouse, intravenous 10 mg/kg, mice; for AUC(0-t): read-out: AUC0-48
Description: Liquid Chromatography (LC) Method for Mass Spectrometry (MS) Detection. Chromatographic separation was on an ACE C18 column (Mac Mod Analytical, 3 μm, Ultra-Inert HPLC Column, 50×2.1 mm) protected by a matched ACE guard cartridge. Separation solvents were A: H2O (99%), methanol (1%), and formic acid (0.1%) and B: H2O (1%), methanol (99%), and formic acid (0.1%) delivered at a flow rate of 400 μl/minute. The hydrophobic character of the analytes allows a large injection (50 μl) to chromatofocus on a column at 5% B. After 0.2 minutes separation was with a linear gradient of 11% B/minute for 4 minutes. Column wash was to 80% B for 2 minutes and re-equilibration at 5% B for 1.5 minutes for a total run-time of 8 minutes. The first 2 minutes of chromatographic effluent was diverted to waste.
Mass Spectrometry Parameters. The mass spectrometer was run in positive ion mode using the electrospray ionization (ESI) source. The source block was 100° C. and desolvation gas temperature 300° C. Argon collision gas pressure on a line to the cell was 1E-3 mbar. Quadrupoles 1 and 3 were set to 0.9 amu FWHH and collision energy and cone voltage settings were optimized for each compound. The data were processed using MassLynx 4.1/QuanLynx and Graphpad Prism 5. Fragmentation patterns of compounds 4, 8, and 15, methyl (Z)-3-(((6-methoxybenzo[d]thiazol-2-yl)imino)methyl)benzoate, 4-(1-((6-methoxybenzo-[d]thiazol-2-yl)amino)ethyl)phenol, and (Z)-1-(4-fluorophenyl)-N-(6-methoxybenzo[d]thiazol-2-yl) methanimine were determined by infusing an aqueous/methanol solution introduce with a T fitting into 30% solvent B from the UPLC for source optimization. The most abundant transitions were chosen for all the three compounds.
Plasma Sample Preparation. Mouse plasma samples, 50 μl, were transferred to a 1.5 ml centrifuge tube and then 50 μl of IS (4 μg/ml) and 50 μl of calibration standard sample were vortexed for 30 seconds. Acetonitrile (0.1 ml) was added to precipitate the proteins. After being vortexed for 3 minutes, the sample was centrifuged for 10 minutes at 13000 rpm. Supernatant (50 μl) was diluted with 50 μl water and injected onto the column.
Brain Sample Preparation. Brain tissue (100 mg) was weighed and placed in a centrifuge tube. Methanol (100 μl) was added and the mixture was homogenized for 1 minute before adding 100 μl IS (6 μg/ml) to the homogenized mixture. The sample was then vortexed for 30 seconds before centrifuging for 10 minute at 13000 rpm. The supernatant liquid was diluted 50% with water and injected.
Application to Pharmacokinetic Study and Data Analysis. Using the validated LCMS/MS method, blood and brain levels of 4, 8, and 15 were measured in male and female C57BL6 mice (8-10 week-old, weighing approximately 25-30 grams). The mice were housed in a room with controlled temperature (23±3° C.) and moisture level (55±15% relative humidity) and exposed to a controlled 12 hour light/12 hour dark cycle. They were allowed to access to food and water ad libitum. Mice were fasted for 6 hours with free access to water prior to the pharmacokinetic study. To determine the time course of compounds 4, 8, and 15 action in the brain, the plasma pharmacokinetics and BBB penetration capability of the inhibitors were investigated. In these experiments, compounds 4, 8, and 15 were administered to mice by intravenous injection at a dosage of 10 mg/kg. Blood and brain samples were collected from mouse at each time point (2, 5, 10, 30, 60, 120, 240, 360, 720, 1440, and 2880 minutes), a total of 11 time points. For plasma measurements, blood (approximately 500-800 μl) was collected via cardiac-puncture into tubes containing sodium heparin anti-coagulant. Plasma was separated via centrifugation (4° C., 3500 rpm, 10 minutes) and stored in −80° C. freezer. For qualitative confirmations of these compounds in CSF, samples were collected at 2 time points (240 and 1440 min) from five animals at each time point. […]

mAPP mice = assay: Morris water maze learning and memory in AD transgenic mice; type: in vivo; conditions: for learning memory: i.p. injection; for swim strategy used to locate the hidden platform: representative swim paths, mAPP mice; for latency to find the hidden platform: treated AD mice compared to untreated AD mice; for number of crossings at the target location / percent of time spent in the target quadrant: treated mAPP mice vs untreated mAPP mice, probe trial
Description: Wild-type mice (Non Tg) were also administered Compound 8 (n=5) and vehicle (n=5). Each mouse was given four 60-second trials per day for six consecutive days to find the hidden platform in a Morris water maze.
Wild-type mice were also administered Compound 8 […]. Each mouse was given four 60-second trials per day for seven consecutive days to find the hidden platform in a Morris water maze.
Each mouse was given four 60-second trials per day for six consecutive days to find the hidden platform in a Morris water maze.
In addition, the effect of Compounds 4 and 8 on learning and memory of Alzheimer's Disease (AD) transgenic mice was evaluated. Six month and 9-14 month-old transgenic mice overexpressing a mutated form of the human amyloid precursor protein (mAPP mice) and their wild-type (non Tg) littermates were used in this study. […] Moreover, performance in a spatial MWM trial was evaluated using crossings over the platform area (an index of memory precision; Morris (1984) J. Neurosci. Methods 11:47-60), percent of time spent in target quadrant (an index of memory retrieval; Morris (1984) J. Neurosci. Methods 11:47-60), and swim paths.

COc1ccc2nc(N[C@@H](c3ccc(O)cc3)P(=O)(OC)OC)sc2c1 (racemic) [Compound 8, Dimethyl ((4-hydroxyphenyl)((6-methoxybenzo[d]thiazol-2-yl)amino)methyl)phosphonate]
MTT reduction (Cells): did not exhibit decreased MTT reduction | AUC(0-inf) ([1]; Brain): 7.1 ng·h/mL | Cmax ([1]; Brain): 4.8 ng/mL | half-life ([1]; Brain): 8.3 h | AUC(0-t) ([1]; Brain): 6.9 ng·h/mL | AUC(0-inf) ([1]; Plasma): 2870 ng·h/mL | Cmax ([1]; Plasma): 2130 ng/mL | half-life ([1]; Plasma): 5.5 h | AUC(0-t) ([1]; Plasma): 2860 ng·h/mL | learning memory (mAPP mice; 6-months old mAPP mice): improves learning memory | learning memory (mAPP mice; 9-14-months old mAPP mice): improves learning memory | swim strategy used to locate the hidden platform (mAPP mice): improvement in the swim strategy | latency to find the hidden platform (mAPP mice): significantly shorter latency | number of crossings at the target location (mAPP mice): significantly more | percent of time spent in the target quadrant (mAPP mice): significantly more

COC(=O)c1cc([C@H](Nc2nc3ccc(OC)cc3s2)P(=O)(OC)OC)ccc1O [Compound 4, Methyl 5-((dimethoxyphosphoryl)((6-methoxybenzo[d]thiazol-2-yl)amino)methyl)-2-hydroxybenzoate]
MTT reduction (Cells): did not exhibit decreased MTT reduction | AUC(0-inf) ([1]; Brain): 75.1 ng·h/mL | Cmax ([1]; Brain): 50.7 ng/mL | Tmax ([1]; Brain): 1.8 min | half-life ([1]; Brain): 17.1 h | AUC(0-t) ([1]; Brain): 66.5 ng·h/mL | AUC(0-inf) ([1]; Plasma): 3030 ng·h/mL | Cmax ([1]; Plasma): 2370 ng/mL | Tmax ([1]; Plasma): 1.8 min | half-life ([1]; Plasma): 6.2 h | AUC(0-t) ([1]; Plasma): 3030 ng·h/mL | learning memory (mAPP mice; 9-months old mAPP mice): improves learning memory | swim strategy used to locate the hidden platform (mAPP mice): improvement in the swim strategy | latency to find the hidden platform (mAPP mice): significantly shorter latency | number of crossings at the target location (mAPP mice): significantly more | percent of time spent in the target quadrant (mAPP mice): significantly more

COc1ccc2nc(N[C@@H](c3ccc(F)cc3)P(=O)(OC)OC)sc2c1 [Compound 15, Dimethyl ((4-fluorophenyl)((6-methoxybenzo[d]thiazol-2-yl)amino)methyl)phosphonate]
AUC(0-inf) ([1]; Brain): 65.4 ng·h/mL | Cmax ([1]; Brain): 44.3 ng/mL | Tmax ([1]; Brain): 1.8 min | half-life ([1]; Brain): 11.4 h | AUC(0-t) ([1]; Brain): 64 ng·h/mL | AUC(0-inf) ([1]; Plasma): 2990 ng·h/mL | Cmax ([1]; Plasma): 1980 ng/mL | Tmax ([1]; Plasma): 1.8 min | half-life ([1]; Plasma): 6.1 h | AUC(0-t) ([1]; Plasma): 2980 ng·h/mL
